ChEMBL document CHEMBL1153535, “Nitazoxanide kills replicating and nonreplicating Mycobacterium tuberculosis and evades resistance” (J Med Chem, 2009)
≈ marks a conversion by molar mass, not a printed value.

How the values were obtained:
[1] = test system: Mycobacterium tuberculosis; assay: Antimycobacterial activity against Mycobacterium tuberculosis H37Rv in 7H9 liquid medium after 7 days; format: functional; conditions: 168 h
[2] = test system: Mycobacterium tuberculosis; assay: Antimycobacterial activity against Mycobacterium tuberculosis H37Rv in 7H11 solid medium after 7 days; format: functional; conditions: 168 h
[3] = test system: Mycobacterium tuberculosis; assay: Antimycobacterial activity against replicating Mycobacterium tuberculosis H37Rv at 125 ug/mL assessed as reduction of log10CFU/mL after 4 days relative to control; format: functional
[4] = test system: Mycobacterium tuberculosis; assay: Antimycobacterial activity against non-replicating Mycobacterium tuberculosis H37Rv at 125 ug/mL assessed as reduction of log10CFU/mL after 4 days relative to control; format: functional
[5] = test system: Mycobacterium tuberculosis; assay: Antimycobacterial activity against replicating Mycobacterium tuberculosis H37Rv at 62 ug/mL assessed as reduction of log10CFU/mL; format: functional, organism-based; conditions: TDE = time-dependent effect
[6] = test system: Mycobacterium tuberculosis; assay: Antimycobacterial activity against replicating Mycobacterium tuberculosis H37Rv at 62 ug/mL assessed as reduction of log10CFU/mL after 4 days; format: functional
[7] = test system: Mycobacterium tuberculosis; assay: Antimycobacterial activity against replicating Mycobacterium tuberculosis H37Rv at 62 ug/mL assessed as reduction of log10CFU/mL after 10 days; format: functional
[8] = test system: Mycobacterium tuberculosis; assay: Antimycobacterial activity against non-replicating Mycobacterium tuberculosis H37Rv at 62 ug/mL assessed as reduction of log10CFU/mL after 6 days relative to control; format: functional
[9] = test system: Mycobacterium tuberculosis; assay: Antimycobacterial activity against Mycobacterium tuberculosis H37Rv after 8 days in presence of 0.04 to 5 mg/mL of BSA; format: functional; conditions: 192 h
[10] = test system: Mycobacterium tuberculosis; assay: Antimycobacterial activity against Mycobacterium tuberculosis H37Rv after 8 days in absence of BSA; format: functional; conditions: 192 h
Giardia = assay: Antimicrobial activity against Giardia; format: functional, organism-based
Cryptosporidium = assay: Antimicrobial activity against Cryptosporidium; format: functional
[11] = Cmax in human plasma at 500 mg, po; format: ADME, organism-based; design: dose 500 mg, route oral

Compound	MIC [1]	MIC [2]	Activity [3]	Activity [4]	Activity [5]	Activity [6]	Activity [7]	Activity [8]	MIC [9]	MIC [10]	IC50 (Giardia)	MIC (Cryptosporidium)	Cmax [11]
CC(=O)Oc1ccccc1C(=O)Nc1ncc([N+](=O)[O-])s1 [NITAZOXANIDE]	16 µg/mL (≈ 52.1 µM)	16 µg/mL (≈ 52.1 µM)	2	6	tde	1	3.5	>=5	16 µg/mL	1 µg/mL (≈ 3.25 µM)	2.5 µg/mL (≈ 8.14 µM)	10 µg/mL (≈ 32.5 µM)	–
O=C(Nc1ncc([N+](=O)[O-])s1)c1ccccc1O [TIZOXANIDE]	16 µg/mL (≈ 60.3 µM)	–	–	–	–	–	–	–	–	–	–	–	10600 ng/mL
